By EC50 is commonly meant the concentration needed to bring the measured effect to its halfway point.

Ends that are not written are not given here.

The results in this text go back to patent publication US7812121B2 (priority 2006, dated 2010).

One series deals with T1, mutated human GLP-2R (Homo sapiens, UniProt O95838, E512D/G511A/L513V).
T1 construct: expressed in transfected cells; host or cells: HEK 293E (clonal line, transfected)
T1 sequence (O95838 1-553 G511A/E512D/L513V): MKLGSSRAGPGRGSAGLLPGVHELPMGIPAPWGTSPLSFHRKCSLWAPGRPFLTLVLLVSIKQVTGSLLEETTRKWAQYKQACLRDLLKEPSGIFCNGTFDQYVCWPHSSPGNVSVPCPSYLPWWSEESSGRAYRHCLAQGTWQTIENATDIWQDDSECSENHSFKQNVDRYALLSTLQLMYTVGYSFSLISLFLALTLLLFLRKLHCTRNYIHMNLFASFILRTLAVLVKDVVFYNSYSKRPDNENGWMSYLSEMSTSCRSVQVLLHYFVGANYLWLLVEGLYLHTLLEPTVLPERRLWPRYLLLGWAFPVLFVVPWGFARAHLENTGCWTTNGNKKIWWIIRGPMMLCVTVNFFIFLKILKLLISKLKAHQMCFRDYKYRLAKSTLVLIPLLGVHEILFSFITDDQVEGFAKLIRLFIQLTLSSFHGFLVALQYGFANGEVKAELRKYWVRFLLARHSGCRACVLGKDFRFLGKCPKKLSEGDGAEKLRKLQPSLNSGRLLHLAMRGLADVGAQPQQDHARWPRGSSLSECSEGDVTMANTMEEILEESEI
The experiment in a line: cAMP expression assay. Type of series: cell-based. Particulars: for EC50: Table 5, peptides 0.01 nM to 1.0 uM, 30-minute incubation at 37° C., read-out: cAMP in Vitro EC50 values; for less activity relative to wild type GLP-2: from cAMP EC50. The text has this:
To achieve this goal, a clonal cell line expressing a mutated human GLP-2R was generated by transfecting HEK 293E cells. The mutated human GLP-2R differs from the wild-type human GLP-2R (SEQ ID NO: 35) at three amino acid positions within the C-terminal intracellular region (SEQ ID NO: 36).
The CAMP expression was quantitated using the cAMP Direct Screen System (Cat. No. CSD 200, Applied Biosystems, Bedford, Mass.).
This assay was based on the cAMP Direct screen system from Applied Biosystems utilizing a cell line expressing mutated huGLP-2R in HEK 293E cells. Peptide at concentrations ranging from 0.01 nM to 1.0 uM in PBS with 0.5% BSA was added to ˜50,000 cells suspended in 96-well plates. After a 30-minute incubation at 37° C., Lysis Buffer followed by luminescence reagents (Applied Biosystems) was added according to the manufacturers' procedures (Applied Biosystems Luminescence protocol: cAMP-Screen Direct System). Luminescence was quantitated using a TopCount liquid scintillation analyzer (PerkinElmer), and data was processed using Softmax software (Molecular Devices Corporation).

Series [1] can be described thus: CD spectra secondary structure. Format: physicochemical. The settings on record: 0.2 mg/mL peptide in PBS, 25° C. The method, then: The secondary structures of tested peptides were determined using 0.2 mg/mL peptide solutions in PBS. Briefly, CD spectra were collected in triplicate at 1 nm intervals at 25° C. in 0.1 cm path length cell. Secondary structures were determined by fitting of the CD spectra using CD spectra software (CD Spectra Deconvolution software 2.1). All tested peptides contained peaks corresponding to the presence of alpha helices.

Series [2] in a line: SEC-SLS solution molecular weight / self-association. Format: physicochemical. The settings on record: PBS (pH 7.5); for SEC-SLS elution / association state of peptides: 1 mg/ml. The method, then: Solution molecular weight of the peptides was measured by SEC-SLS. Briefly, peptide solutions in PBS (pH 7.5) at 0.4 to 2.0 mg/mL were fractionated over a Superdex peptide column (Amersham Pharmacia). The eluted peaks were monitored by static light scattering at 690 nm and solution molecular weight was determined at UV 280 nm using the Astra software package (Wyatt Inc.).

Series [3] can be described thus: Incubation with U937 cell lysate, SDS-PAGE. Type of series: in vitro ADME. The settings on record: 24 hour test period, compared with A2G GLP-2 mimetibody (SEQ ID NO: 5). The method, then:
The purified Pro substitution variants were incubated with U937 cell lysate in the presence of CompleteMini protease inhibitor tablets (Cat. No. 1 836 153, Roche Applied Science, Indianapolis, Ind.) for 0, 12, or 24 hours. Afterwards, GLP-2 mimetibody variants were purified using Protein A beads and resolved on a SDS-PAGE gel.

A short description of series [4]: SEC-SLS solution molecular weight / self-association. Type of series: physicochemical. Particulars: purified mimetibody.

Turning to `CC[C@H](C)[C@H](NC(=O)[C@H](Cc1ccccc1)NC(=O)[C@H](CC(=O)O)NC(=O)[C@H](CCCNC(=N)N)NC(=O)[C@H](C)NC(=O)[C@H](C)NC(=O)[C@H](CC(C)C)NC(=O)[C@H](CC(N)=O)NC(=O)[C@H](CC(=O)O)NC(=O)[C@H](CC(C)C)NC(=O)[C@@H](NC(=O)[C@@H](NC(=O)[C@H](CC(N)=O)NC(=O)[C@H](CCSC)NC(=O)[C@H](CCC(=O)O)NC(=O)[C@H](CC(=O)O)NC(=O)[C@H](CO)NC(=O)[C@H](Cc1ccccc1)NC(=O)[C@H](CO)NC(=O)CNC(=O)[C@H](CC(=O)O)NC(=O)[C@H](C)NC(=O)[C@@H](N)Cc1c[nH]cn1)[C@@H](C)O)[C@@H](C)CC)C(=O)N[C@@H](CC(N)=O)C(=O)N[C@@H](Cc1c[nH]c2ccccc12)C(=O)N[C@@H](CC(C)C)C(=O)N[C@H](C(=O)N[C@@H](CCC(N)=O)C(=O)N[C@H](C(=O)N[C@@H](CCCCN)C(=O)N[C@H](C(=O)N[C@H](C(=O)N[C@@H](CC(=O)O)C(=O)O)[C@@H](C)O)[C@@H](C)CC)[C@@H](C)O)[C@@H](C)CC` [SEQ ID NO: 1, GLP-2, reference compound], on mutated human GLP-2R (clonal HEK 293E line expressing mutated human GLP-2R), the “stimulation of cAMP expression” value is recorded as “stimulated cAMP expression”. Besides, in series [1], the Helix was 19.6% and the Random coil is on record as 37.9%. The association state result in series [2] (0.4 mg/mL) is listed as “monomer”. Besides, the “SEC-SLS elution / association state of peptides” value in series [2] was “overlapping dimer and monomer peaks”.

Turning to “GLP-1 [SEQ ID NO: 79, reference compound]”, in series [1], the Helix was determined as 16.8% and the Random coil is recorded as 41.9%. In addition, the “SEC-SLS elution / association state of peptides” value in series [2] was “single peak with molecular weight within the expected monomer size”.

For “HGDGSFSDEMNTILDGQAARDFINWLIQTKITD [SEQ ID NO: 55, GLP-2(A2G, N16G, L17Q)]”, at mutated human GLP-2R, the EC50 was determined as 3.5 nM and the “less activity relative to wild type GLP-2” value was 2 ×. In series [1], this molecule had a Random coil of 41.4%. In series [1] (listed as GLP-2 (A2G, N16G, L17Q)), this molecule displayed a Helix of 17.0%. Besides, in series [1] (listed as GLP-2(A2G, N16G, L17Q)), the Helix is listed as roughly 17%. Further, the “SEC-SLS elution / association state of peptides” value in series [2] is listed as “mainly monomeric peptide”.

In the case of “HGDGSFSDEMNTILDNQAARDFINWLIQTKITD [SEQ ID NO: 54, GLP-2(A2G, L17Q)]”, at mutated human GLP-2R, the 50% effective concentration (EC50) worked out at 5.2 nM and the “less activity relative to wild type GLP-2” value was found to be 3 ×. The Random coil in series [1] is 41.8%. In series [1] (listed as GLP-2 (A2G, L17Q)), this molecule came in with a Helix of 16.9%. Moreover, in series [1] (listed as GLP-2(A2G, L17Q)), the Helix is roughly 17%. Besides, the “SEC-SLS elution / association state of peptides” value in series [2] is “mainly monomeric peptide”.

“SEQ ID NO: 43: A2G GLP-2 mimetibody Pro substitution variant, V2 GALVAVPS (HGDGSFSDEMNTILDNLAARDFINWLIQTKITDGSGGGSGALVAVPSESKYGPPCPPCP; cysteine pairing not given here; also: part of GLP-2 mimetibody)”: the “degradation / resistance to proteolysis” value in series [3] is listed as “less degradation”.

As for “SEQ ID NO: 44: A2G GLP-2 mimetibody Pro substitution variant, V2 GALVAVSP (HGDGSFSDEMNTILDNLAARDFINWLIQTKITDGSGGGSGALVAVSPESKYGPPCPPCP; Mimetibody)”, in series [3], the “degradation / resistance to proteolysis” value is listed as “less degradation”.

B1: SEQ ID NO: 4: A2S GLP-2 mimetibody, IgG4 Hg-CH2-CH3 with S228P and P234A/L235A (protein)
chain: HSDGSFSDEMNTILDNLAARDFINWLIQTKITDGSGGGSGTLVTVSSESKYGPPCPPCPAPEAAGGPSVFLFPPKPDTLMISRTPEVTCVVVDVSQEDPEVQFNWYVDGVEVHNAKTKPREEQFNSTYRVVSVLTVLHQDWLNGKEYKCKVSNKGLPSSIEKTISKAKGQPREPQVYTLPPSQEEMTKNQVSLTCLVKGFYPSDIAVEWESNGQPENNYKTTPPVLDSDGSFFLYSRLTVDKSRWQEGNVFSCSVMHEALHNHYTQKSLSLSLGK
modifications: Mimetibody
In the case of B1, the “SEC-SLS association state of mimetibodies” value in series [4] is recorded as “dimer”.
